{
  "source": "patent US20230183305A1",
  "about": "“KERATIN BD-11, PREPARATION METHOD THEREFOR AND PHARMACEUTICAL COMPOSITION AND USE THEREOF” (INSTITUTE OF MATERIA MEDICA, CHINESE ACADEMY OF MEDICAL …, priority 2019, published 2023)",
  "system": "tracheal phenol red excretion in ICR mice",
  "assay": "Expectorant test, phenol red excretion method in mice",
  "format": "in vivo, mouse",
  "description": "• Animals: male ICR mice; • Drugs and reagents: Mucosolvan (ambroxol hydrochloride tablets), phenol red, sodium bicarbonate, protein BD-11; • Instruments: centrifuge (Sigma-3K15 type), balance (XS105DU type), Microplate tester (BIO-TEK type).\nExperiment grouping: • Solvent control group; • Mucosolvan 30 mg/kg group; • Protein BD-11, 20 mg/kg group, 50 mg/kg group.\nThe animals were fasted and water was taken freely 16 hours before the experiment. Orally administered Mucosolvan and different doses of protein BD-11 (administration volume 10 ml/kg) in groups, and the solvent control group was given the same volume of distilled water. One hour later, 2.5% phenol red solution was injected intraperitoneally. Mice were sacrificed by neck dislocation after 30 minutes. Take a trachea from below the thyroid cartilage to the branch of the trachea, and put the trachea into 3 ml 5% NaHCO3 solution and let it stand for 3 hours. Take 1 ml of the supernatant and centrifuge at 3000 rpm for 5 minutes. Measure and record the absorbance at 546 nm. According to the standard curve of phenol red, the excretion of phenol red was calculated.\nRecord the time point of oral administration, the time point of intraperitoneal injection of 2.5% phenol red solution, and the time point of taking the trachea respectively; The absorbance of each group of samples was measured by the microplate reader at 546 nm, Calculate the excretion of phenol red according to the standard curve of phenol red. Calculate the mean and standard error of the data in each group, and use TTEST to compare the solvent control group with other groups, and P<0.05 is considered as a significant difference.\nGive Mucosolvan (30 mg/kg) and different doses of protein BD-11 (20 mg/kg, 50 mg/kg). One hour later, 2.5% phenol red solution was intraperitoneally injected, and 30 minutes later, the mice were sacrificed by neck dislocation. Take the trachea from below the thyroid cartilage to the branch of the trachea, put the trachea into 3 ml of 5% NaHCO3 solution and let it stand for 3 hours, take 1 ml of supernatant, centrifuge at 3000 rpm for 5 minutes, measure and record the absorbance at 546 nm. According to the standard curve of phenol red, the excretion of phenol red was calculated.",
  "note": "Counter-ions that a name gives are not always drawn.",
  "data": [
    {"smiles": "Nc1c(Br)cc(Br)cc1CN[C@H]1CC[C@H](O)CC1", "note": "[Mucosolvan, ambroxol hydrochloride, reference compound]", "values": [
      {"measurement": "Phenol red excretion", "setting": "Mucosolvan 30 mg/kg oral, X±SEM, n=10", "value": "1.061 ± 0.117", "unit": "µg/mL"},
      {"measurement": "Amount of phenol red excretion vs solvent control group", "setting": "Mucosolvan 30 mg/kg, P<0.05", "value": "significantly increased"}
    ]}
  ]
}
